Measured values as given in patent publication US8415469B2, “Compounds and methods for kinase modulation, and indications therefor” (Plexxikon Inc., priority 2005, dated 2013).

Legend:
Assay type in all cases: biochemical
Ret = target: T1, Ret (Homo sapiens, UniProt P07949); assay: AlphaScreen kinase assay, Ret; settings: read-out: IC50, activity toward kinase Ret
T1 construct: P1378.pET-SF BI-PTP RET H661-R1012 HIS; made in house
T1 sequence (P07949 with tags, fused parts or gaps): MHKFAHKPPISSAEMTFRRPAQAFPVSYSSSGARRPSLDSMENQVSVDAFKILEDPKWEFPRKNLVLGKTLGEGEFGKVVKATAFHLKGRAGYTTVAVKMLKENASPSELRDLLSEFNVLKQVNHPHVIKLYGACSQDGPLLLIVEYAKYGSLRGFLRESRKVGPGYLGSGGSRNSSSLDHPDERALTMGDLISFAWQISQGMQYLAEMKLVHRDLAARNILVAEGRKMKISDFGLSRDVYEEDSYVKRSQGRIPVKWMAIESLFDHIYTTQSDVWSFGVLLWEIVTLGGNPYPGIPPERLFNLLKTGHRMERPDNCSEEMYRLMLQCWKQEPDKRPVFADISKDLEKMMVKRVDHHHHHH

FGFR1 = target: T2, FGFR1 (Homo sapiens, UniProt P11362, C488A/C584S); assay: AlphaScreen kinase assay, FGFR1; settings: read-out: IC50, activity toward kinase FGFR
T2 construct: P1351.pET N6 BI-PTP FGFR A458-E765-X C488A, C584S; made in house; host or cells: E. coli (PTP1B co-expressed)

B-Raf V600E = target: T3, B-Raf V600E (Homo sapiens, UniProt P15056, V600E); assay: AlphaScreen kinase assay, B-Raf V600E; settings: read-out: IC50, activity toward kinase B-Raf V600E
T3 construct: P4254. pFastBacBD-CDC37 BRAF D437-K722-X, V600E; His6 with pFastBac HT leader (TEV site) (N); made in house; host or cells: Sf9 (baculovirus; chaperone CDC37 co-expressed)

Kit = target: T4, Kit (Homo sapiens, UniProt P10721); assay: AlphaScreen kinase assay, Kit; settings: read-out: IC50, activity toward kinase Kit
T4 construct: P1332.N6 BI PTP KIT M552-K948-X COD; His6 (N); made in house; host or cells: E. coli (PTP1B co-expressed)

B-Raf = target: T5, B-Raf (Homo sapiens, UniProt P15056); assay: AlphaScreen kinase assay, B-Raf; settings: read-out: IC50, activity toward kinase B-Raf
T5 construct: purchased Upstate Biotechnology

Fms = target: T6, Fms (Homo sapiens, UniProt P07333); assay: AlphaScreen kinase assay, Fms; settings: read-out: IC50, activity toward kinase Fms
T6 construct: purchased Upstate Biotechnology
T6 sequence (P07333 20-972): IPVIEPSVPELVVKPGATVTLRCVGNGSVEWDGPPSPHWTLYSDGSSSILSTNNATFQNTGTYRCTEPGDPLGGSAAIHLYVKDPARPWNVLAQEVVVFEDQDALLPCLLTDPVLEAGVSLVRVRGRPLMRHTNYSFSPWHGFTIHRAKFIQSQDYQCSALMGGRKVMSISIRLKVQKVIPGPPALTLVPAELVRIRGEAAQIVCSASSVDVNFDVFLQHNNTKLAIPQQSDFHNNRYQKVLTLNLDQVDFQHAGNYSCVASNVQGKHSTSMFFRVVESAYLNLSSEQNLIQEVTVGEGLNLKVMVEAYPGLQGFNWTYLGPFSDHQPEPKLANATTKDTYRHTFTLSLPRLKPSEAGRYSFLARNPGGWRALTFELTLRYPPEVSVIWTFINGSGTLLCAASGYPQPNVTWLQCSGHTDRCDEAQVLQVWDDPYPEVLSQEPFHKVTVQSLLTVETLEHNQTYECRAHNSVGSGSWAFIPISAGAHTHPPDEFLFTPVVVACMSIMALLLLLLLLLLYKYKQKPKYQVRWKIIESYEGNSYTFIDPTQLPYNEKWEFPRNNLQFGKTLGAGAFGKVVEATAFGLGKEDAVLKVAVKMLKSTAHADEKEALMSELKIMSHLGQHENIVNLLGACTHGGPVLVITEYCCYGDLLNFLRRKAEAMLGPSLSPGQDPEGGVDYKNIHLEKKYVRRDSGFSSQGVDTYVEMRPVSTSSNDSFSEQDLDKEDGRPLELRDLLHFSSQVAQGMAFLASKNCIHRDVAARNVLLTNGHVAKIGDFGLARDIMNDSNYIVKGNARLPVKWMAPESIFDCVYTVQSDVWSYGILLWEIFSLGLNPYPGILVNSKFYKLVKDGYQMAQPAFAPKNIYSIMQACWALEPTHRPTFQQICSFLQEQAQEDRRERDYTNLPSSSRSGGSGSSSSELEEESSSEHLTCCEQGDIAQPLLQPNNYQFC

T5 sequence (P15056 whole entry): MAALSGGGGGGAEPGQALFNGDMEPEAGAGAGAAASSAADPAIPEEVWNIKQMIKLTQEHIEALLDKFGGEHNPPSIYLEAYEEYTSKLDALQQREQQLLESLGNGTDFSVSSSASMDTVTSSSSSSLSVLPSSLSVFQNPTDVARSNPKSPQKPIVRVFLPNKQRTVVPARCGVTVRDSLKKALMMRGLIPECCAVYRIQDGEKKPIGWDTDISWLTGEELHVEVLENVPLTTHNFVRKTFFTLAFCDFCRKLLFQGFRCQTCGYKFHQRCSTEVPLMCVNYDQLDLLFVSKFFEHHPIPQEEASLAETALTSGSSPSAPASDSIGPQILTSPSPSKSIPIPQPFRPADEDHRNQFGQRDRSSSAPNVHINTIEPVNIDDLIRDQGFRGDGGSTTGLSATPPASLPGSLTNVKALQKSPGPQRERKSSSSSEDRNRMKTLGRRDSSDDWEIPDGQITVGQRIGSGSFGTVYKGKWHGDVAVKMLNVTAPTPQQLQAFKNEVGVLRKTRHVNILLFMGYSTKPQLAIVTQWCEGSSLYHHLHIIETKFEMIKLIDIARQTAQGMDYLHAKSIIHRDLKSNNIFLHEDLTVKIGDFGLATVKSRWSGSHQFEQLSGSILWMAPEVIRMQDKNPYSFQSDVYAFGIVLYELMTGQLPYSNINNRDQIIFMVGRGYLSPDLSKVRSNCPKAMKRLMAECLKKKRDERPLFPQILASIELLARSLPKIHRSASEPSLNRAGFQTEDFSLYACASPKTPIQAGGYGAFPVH
T4 sequence (P10721 with tags, fused parts or gaps): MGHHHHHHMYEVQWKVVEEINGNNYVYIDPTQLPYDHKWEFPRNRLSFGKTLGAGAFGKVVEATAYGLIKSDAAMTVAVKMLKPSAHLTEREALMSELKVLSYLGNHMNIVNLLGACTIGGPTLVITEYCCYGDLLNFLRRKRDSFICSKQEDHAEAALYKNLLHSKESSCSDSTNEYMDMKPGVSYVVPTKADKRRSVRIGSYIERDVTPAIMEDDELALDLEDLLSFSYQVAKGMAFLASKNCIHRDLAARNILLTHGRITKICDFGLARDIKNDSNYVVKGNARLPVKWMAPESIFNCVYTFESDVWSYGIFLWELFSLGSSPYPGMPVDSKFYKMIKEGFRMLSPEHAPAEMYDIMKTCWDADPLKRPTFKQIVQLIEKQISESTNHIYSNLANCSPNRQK
T3 sequence (P15056 with tags, fused parts or gaps V600E): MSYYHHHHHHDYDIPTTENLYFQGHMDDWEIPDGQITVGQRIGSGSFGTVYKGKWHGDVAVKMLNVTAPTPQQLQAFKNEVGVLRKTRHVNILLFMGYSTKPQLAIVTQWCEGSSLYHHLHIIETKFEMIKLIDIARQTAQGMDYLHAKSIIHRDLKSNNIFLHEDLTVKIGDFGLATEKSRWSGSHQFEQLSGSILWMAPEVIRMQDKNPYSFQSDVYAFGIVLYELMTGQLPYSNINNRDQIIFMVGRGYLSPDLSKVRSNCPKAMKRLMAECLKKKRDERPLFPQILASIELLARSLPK
T2 sequence (P11362 458-765 C488A/C584S): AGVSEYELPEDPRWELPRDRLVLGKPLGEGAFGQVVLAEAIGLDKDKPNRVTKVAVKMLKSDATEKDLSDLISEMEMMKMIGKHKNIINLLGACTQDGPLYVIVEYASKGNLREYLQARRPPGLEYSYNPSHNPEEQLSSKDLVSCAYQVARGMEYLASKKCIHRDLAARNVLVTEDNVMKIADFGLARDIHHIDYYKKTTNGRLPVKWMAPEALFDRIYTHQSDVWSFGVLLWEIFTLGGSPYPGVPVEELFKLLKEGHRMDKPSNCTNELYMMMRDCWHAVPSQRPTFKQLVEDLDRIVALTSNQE

| IC50 (Ret) | IC50 (FGFR1) | IC50 (B-Raf V600E) | IC50 (Kit) | IC50 (B-Raf) | IC50 (Fms) | Structure (SMILES) |
| --- | --- | --- | --- | --- | --- | --- |
| ≤ 10 µM |  |  |  |  |  | COc1ccc(-c2ccnc3[nH]cc(C(=O)c4ccccc4F)c23)cn1 [Compound P-0245] |
|  | ≤ 10 µM | ≤ 10 µM | ≤ 10 µM | ≤ 10 µM | ≤ 10 µM | COc1ccc(F)c(C(=O)c2c[nH]c3ncc(Br)cc23)c1 [Compound P-0284] |
| ≤ 10 µM |  |  |  |  |  | O=S(=O)(NCc1c[nH]c2ncccc12)C(F)(F)F [Compound P-0412] |
| ≤ 10 µM |  |  |  |  |  | Fc1ccc(-c2c(CNCc3ccccc3)[nH]c3ncccc23)cc1 [Compound P-0517] |
|  | ≤ 10 µM |  |  | ≤ 10 µM | ≤ 10 µM | O=C(c1ccc(F)cc1F)c1c[nH]c2ncc(-c3cccnc3)cc12 [Compound P-1555] |
|  |  | ≤ 10 µM | ≤ 10 µM | ≤ 10 µM | ≤ 10 µM | COc1ccc(NC(=O)Nc2cccc(C(=O)c3c[nH]c4ncccc34)c2)cc1 [Compound P-1705, 1-(4-Methoxy-phenyl)-3-[3-(1H-pyrrolo[2,3-b]pyridine-3-carbonyl)-phenyl]-urea] |
|  |  | ≤ 10 µM | ≤ 10 µM | ≤ 10 µM | ≤ 10 µM | O=C(Nc1ccc(Cl)cc1)Nc1cccc(C(=O)c2c[nH]c3ncccc23)c1 [Compound P-1709, 1-(4-Chloro-phenyl)-3-[3-(1H-pyrrolo[2,3-b]pyridine-3-carbonyl)-phenyl]-urea] |
|  |  | ≤ 10 µM | ≤ 10 µM | ≤ 10 µM | ≤ 10 µM | Cc1ccc(NC(=O)Nc2cccc(C(=O)c3c[nH]c4ncccc34)c2)cc1 [Compound P-1718, 1-[3-(1H-Pyrrolo[2,3-b]pyridine-3-carbonyl)-phenyl]-3-p-tolyl-urea] |
|  |  | ≤ 10 µM | ≤ 10 µM | ≤ 10 µM | ≤ 10 µM | Cc1cccc(NC(=O)Nc2cccc(C(=O)c3c[nH]c4ncccc34)c2)c1 [Compound P-1719, 1-[3-(1H-Pyrrolo[2,3-b]pyridine-3-carbonyl)-phenyl]-3-m-tolyl-urea] |
|  |  | ≤ 10 µM | ≤ 10 µM | ≤ 10 µM | ≤ 10 µM | O=C(c1c(F)ccc(NS(=O)(=O)c2ccsc2)c1F)c1c[nH]c2ncc(Br)cc12 [Compound P-1798, Thiophene-3-sulfonic acid [3-(5-bromo-1H-pyrrolo[2,3-b]pyridine-3-carbonyl)-2,4-difluoro-phenyl]-amide] |
|  |  | ≤ 10 µM |  | ≤ 10 µM | ≤ 10 µM | COc1ccc(NC(=O)Nc2cccc(C(=O)c3c[nH]c4ncc(-c5ccc(F)cc5)cc34)c2)cc1OC [Compound P-1818, 1-(3,4-Dimethoxy-phenyl)-3-{3-[5-(4-fluoro-phenyl)-1H-pyrrolo[2,3-b]pyridine-3-carbonyl]-phenyl}-urea] |
|  |  | ≤ 10 µM |  | ≤ 10 µM | ≤ 10 µM | O=C(Nc1cccc(F)c1)Nc1cccc(C(=O)c2c[nH]c3ncc(-c4ccc(F)cc4)cc23)c1 [Compound P-1819, 1-(3-Fluoro-phenyl)-3-{3-[5-(4-fluoro-phenyl)-1H-pyrrolo[2,3-b]pyridine-3-carbonyl]-phenyl}-urea] |
|  |  | ≤ 10 µM | ≤ 10 µM | ≤ 10 µM | ≤ 10 µM | N#Cc1ccc(S(=O)(=O)Nc2ccc(F)c(C(=O)c3c[nH]c4ncc(Cl)cc34)c2F)cc1 [Compound P-1822, N-[3-(5-Chloro-1H-pyrrolo[2,3-b]pyridine-3-carbonyl)-2,4-difluoro-phenyl]-4-cyano-benzenesulfonamide] |
|  |  | ≤ 10 µM | ≤ 10 µM | ≤ 10 µM | ≤ 10 µM | O=C(c1c(F)ccc(NS(=O)(=O)c2ccc(F)cc2)c1F)c1c[nH]c2ncc(Cl)cc12 [Compound P-1840, N-[3-(5-Chloro-1H-pyrrolo[2,3-b]pyridine-3-carbonyl)-2,4-difluoro-phenyl]-4-fluoro-benzenesulfonamide] |
|  |  | ≤ 10 µM | ≤ 10 µM | ≤ 10 µM | ≤ 10 µM | COCCOc1cnc2[nH]cc(C(=O)c3c(F)ccc(NS(=O)(=O)c4ccc(F)cc4)c3F)c2c1 [Compound P-1872, N-{2,4-Difluoro-3-[5-(2-methoxy-ethoxy)-1H-1-pyrrolo[2,3-b]pyridine-3-carbonyl]-phenyl}-4-fluoro-benzenesulfonamide] |
|  |  | ≤ 10 µM |  | ≤ 10 µM | ≤ 10 µM | COC(=O)c1ccc(S(=O)(=O)Nc2ccc(F)c(C(=O)c3c[nH]c4ncc(Cl)cc34)c2F)o1 [Compound P-1907, 5-[3-(5-Chloro-1H-pyrrolo[2,3-b]pyridine-3-carbonyl)-2,4-difluoro-phenylsulfamoyl]-furan-2-carboxylic acid methyl ester] |
|  |  | ≤ 10 µM |  | ≤ 10 µM | ≤ 10 µM | O=C(c1c(F)ccc(NS(=O)(=O)c2ccccc2F)c1F)c1c[nH]c2ncc(Cl)cc12 [Compound P-1912, N-[3-(5-Chloro-1H-pyrrolo[2,3-b]pyridine-3-carbonyl)-2,4-difluoro-phenyl]-2-fluoro-benzenesulfonamide] |
|  |  | ≤ 10 µM |  | ≤ 10 µM | ≤ 10 µM | O=C(c1c(F)ccc(NS(=O)(=O)c2ccc(OC(F)F)cc2)c1F)c1c[nH]c2ncc(Cl)cc12 [Compound P-1916, N-[3-(5-Chloro-1H-pyrrolo[2,3-b]pyridine-3-carbonyl)-2,4-difluoro-phenyl]-4-difluoromethoxy-benzenesulfonamide] |
|  |  | ≤ 10 µM | ≤ 10 µM | ≤ 10 µM | ≤ 10 µM | CCCS(=O)(=O)Nc1ccc(F)c(C(=O)c2c[nH]c3ncc(-c4cc(C)c(C#N)c(C)c4)cc23)c1F [Compound P-1980, Propane-1-sulfonic acid {3-[5-(4-cyano-3,5-dimethyl-phenyl)-1H-pyrrolo[2,3-b]pyridine-3-carbonyl]-2,4-difluoro-phenyl}-amide] |
|  |  | ≤ 10 µM | ≤ 10 µM | ≤ 10 µM | ≤ 10 µM | Cn1cc(-c2cnc3[nH]cc(C(=O)c4c(F)ccc(NS(=O)(=O)c5ccc(C(F)(F)F)cc5)c4F)c3c2)cn1 [Compound P-1996, N-{2,4-Difluoro-3-[5-(1-methyl-1H-pyrazol-4-yl)-1H-pyrrolo[2,3-b]pyridine-3-carbonyl]-phenyl}-4-trifluoromethyl-benzenesulfonamide] |
|  |  | ≤ 10 µM | ≤ 10 µM | ≤ 10 µM | ≤ 10 µM | Cn1cc(-c2cnc3[nH]cc(C(=O)c4c(F)ccc(NS(=O)(=O)c5cccc(F)c5)c4F)c3c2)cn1 [Compound P-1997, N-{2,4-Difluoro-3-[5-(1-methyl-1H-pyrazol-4-yl)-1H-pyrrolo[2,3-b]pyridine-3-carbonyl]-phenyl}-3-fluoro-benzenesulfonamide] |
|  |  | ≤ 10 µM | ≤ 10 µM | ≤ 10 µM | ≤ 10 µM | CCCS(=O)(=O)Nc1ccc(F)c(C(=O)c2c[nH]c3ncc(-c4ccc(OCCOC)cc4)cc23)c1F [Compound P-1998, Propane-1-sulfonic acid (2,4-difluoro-3-{5-[4-(2-methoxy-ethoxy)-phenyl]-1H-pyrrolo[2,3-b]pyridine-3-carbonyl}-phenyl)-amide] |
|  |  | ≤ 10 µM |  | ≤ 10 µM | ≤ 10 µM | COCCOc1cnc2[nH]cc(C(=O)c3c(F)ccc(NS(=O)(=O)c4ccc(C(F)(F)F)cc4)c3F)c2c1 [Compound P-2005, N-{2,4-Difluoro-3-[5-(2-methoxy-ethoxy)-1H-pyrrolo[2,3-b]pyridine-3-carbonyl]-phenyl}-4-trifluoromethyl-benzenesulfonamide] |
|  |  | ≤ 10 µM |  | ≤ 10 µM | ≤ 10 µM | CCCS(=O)(=O)Nc1ccc(F)c(C(=O)c2c[nH]c3ncc(-c4nc(C)c[nH]4)cc23)c1F [Compound P-2006, Propane-1-sulfonic acid {2,4-difluoro-3-[5-(4-methyl-1H-imidazol-2-yl)-1H-pyrrolo[2,3-b]pyridine-3-carbonyl]-phenyl}-amide] |
|  |  | ≤ 10 µM |  | ≤ 10 µM | ≤ 10 µM | COc1ccc(-c2cnc3[nH]cc(C(=O)c4c(F)ccc(NS(=O)(=O)c5cccc(F)c5)c4F)c3c2)cn1 [Compound P-2012, N-{2,4-Difluoro-3-[5-(6-methoxy-pyridin-3-yl)-1H-pyrrolo[2,3-b]pyridine-3-carbonyl]-phenyl}-3-fluoro-benzenesulfonamide] |
|  |  | ≤ 10 µM |  | ≤ 10 µM | ≤ 10 µM | COCCOc1ccc(-c2cnc3[nH]cc(C(=O)c4c(F)ccc(NS(=O)(=O)c5ccc(C(F)(F)F)cc5)c4F)c3c2)cc1 [Compound P-2013, N-(2,4-Difluoro-3-{5-[4-(2-methoxy-ethoxy)-phenyl]-1H-pyrrolo[2,3-b]pyridine-3-carbonyl}-phenyl)-4-trifluoromethyl-benzenesulfonamide] |
